Columns and labels:
A549 = assay: CellTiter-Glo cell viability assay (VHH-based PAX); details: A549, PROTAC alone
Protocol: (§1) Several cell viability experiments were performed following the procedure described below: Cells were seeded in different media into white cell culture-treated flat and clear bottom multiwell plates followed by overnight incubation in a humid chamber at 37° C. and 5% CO2. Complexation was performed as described in chapter 7.4.
(§2) The solutions were added to the cells based on the antibody concentration using nanodrop dispension using a Tecan D300e Digital Dispenser and all wells were normalized to the same volume using 0.3% TW20 in PBS pH 7.4 and DMSO to a final solvent concentration of 0.05% DMSO and 0.003% TW20. Incubation was performed at 37° C. at 5% or 10% CO2 dependent on the medium. The assay was developed after 3 days if not otherwise stated using CellTiter-Glo Luminescent Cell Viability Assay as described in the manufacturer's protocol. In brief, the plates were equilibrated to room temperature for 30 minutes. 100 mL CellTiter-Glo Buffer were added to the CellTiter-Glo Substrate Flask and mixed well. 30 μL of the reagent was transferred to each well. After incubation for 3 minutes at room temperature while shaking at 550 rpm, the plate was incubated for another 10 minutes at room temperature. The luminescence was read on an Envision reader from Perkin Elmer. Solvent alone and Bortezomib (1.0E-05 M) served as high control (100% viability) and low control (0% viability), respectively. Raw data were converted into percent cell viability relative to the high and low control, which were set to 100% and 0%, respectively. […] The concentration corresponds to the concentration of PROTACs in the PAX.

NCIN87 = assay: CellTiter-Glo cell viability assay (VHH-based PAX); details: NCIN87, PROTAC alone
Protocol: as §1, §2

OVCAR3 = assay: CellTiter-Glo cell viability assay (VHH-based PAX); details: OVCAR3, PROTAC alone
Protocol: as §1, §2

RAMOS cells = assay: CellTiter-Glo cell viability assay (VHH-based PAX); details: PROTAC alone
Protocol: as §1, §2

SKBR3 = assay: CellTiter-Glo cell viability assay (VHH-based PAX); details: SKBR3, PROTAC alone
Protocol: as §1, §2

SW620 = assay: CellTiter-Glo cell viability assay (VHH-based PAX); details: SW620, PROTAC alone
Protocol: as §1, §2

MV411 xenograft = MV411 xenograft efficacy study in female CB17 SCID mice; type: in vivo, mouse
Protocol: Human leukemic MV411 cells were xenografted in immunocompromised mice. Three million MV411 cells were injected subcutaneously in the left flank of untreated female CB17 SCID mice. Randomization of the animals in the different treatment groups and the initiation of the treatment was started after the average tumor size reached 45 mm^2. The control groups were treated with vehicle. The test groups were treated with 0.38 mg/kg GNE987 and 30 mg/kg CD33xMIC7+GNE987 (loaded with 0.38 mg/kg GNE987) once (at day 1). Further, two groups were treated twice, either with 30 mg/kg CD33xMIC7+GNE987 (loaded with 0.38 mg/kg GNE987) at day 1 followed by treatment with 0.38 mg/kg GNE987 at day 8 or with 0.38 mg/kg GNE987 at day 1 and 8. Additionally, one group received 30 mg/kg CD33xMIC5+GNE987 (loaded with 0.38 mg/kg GNE987) once (at day 1) and another group received the antibody control 30 mg/kg CD33xMIC7 without PROTAC once (at day 1). The individual groups were stopped before tumors reached a maximum tumor size (225 mm^2) (FIG. 49).

[1] = Pillow, T. H. et al., ChemMedChem 15 (2020) 17-25; cited from earlier work
BRD4 = BRD4 (Homo sapiens, UniProt O60885); assay: BRD4 Western blot degradation assay in MV411 cells; type: cell-based; design: endogenous in cells; host or cells: MV411; details: CD33-positive MV411 cells, 24 h, complexes (1:1)
Protocol: Therefore, CD33-positive MV411 cells were treated with CD33xMIC7+GNE987 or DIGxMIC7+GNE987, as non-binding PAX control, at different concentrations and GNE987 alone as control. MV411 cells were cultured in RPMI-1640 medium supplemented with 10% FCS and penicillin-streptomycin. MV411 cells were seeded in 12-well plates at 1 million cells/ml in 2 ml culture medium and cultured overnight in cell incubator at 37° C. and 5% CO2. Complexation was performed as described in chapter 7.4. GNE987 only was preincubated at identical conditions but in absence of antibody. Subsequently, cells were treated by nanodrop dispersion using a Tecan dispenser with either CD33xMIC7+GNE987 (1:1), DIGxMIC7+GNE987 (1:1) or GNE987 in the respective concentration. All conditions were normalized to 0.0005% (v/V) DMSO and 3.0E-5% Tween20. Cells were incubated for 24 h in cell incubator at 37° C. and 5% CO2. […] Protein concentration was determined via Mettler Toledo UV5Nano photometer. […]
After incubation with corresponding HRP-labeled anti-rabbit/mouse secondary antibodies (GE-Healthcare) at 1:10,000 dilution, blots were detected using ECL solution (Advansta) and x-ray films (GE-Healthcare). Results were analyzed with ImageJ software (version 1.53K, NIH). […]

Q: Which results are given for `Cc1ncsc1-c1ccc(CNC(=O)[C@@H]2C[C@@H](O)CN2C(=O)[C@@H](NC(=O)CCCCCCCCCCNC(=O)c2cc3c(cc2CS(C)(=O)=O)-c2cn(C)c(=O)c4[nH]cc(c24)CN3c2ncc(F)cc2F)C(C)(C)C)cc1` [GNE987]?
A: IC50 (A549): 1.4 nM; IC50 (NCIN87): 0.53 nM; IC50 (OVCAR3): 0.4 nM; IC50 (RAMOS cells): 0.058 nM; IC50 (SKBR3): 0.39 nM; IC50 (SW620): 0.84 nM; day post re-dosing where tumors started to grow again (MV411 xenograft; 0.38 mg/kg GNE987 at day 1 and 8): ~3 days; anti-tumor effect (in words) (MV411 xenograft; dosed once at day 1): induced anti-tumor effects; day until which tumor growth was inhibited / tumors started to progress (MV411 xenograft; single dose at day 1 (0.38 mg/kg GNE987 or 30 mg/kg PAX)): ~4 days; half-life reported in literature [1]: 2.8 h; BRD4 degradation (Western blot) (BRD4): BRD4 degradation was found

Reference: US20250312468A1, “ANTI-PROTAC ANTIBODIES AND COMPLEXES” (Merck Patent GmbH, priority 2021, published 2025)
